Laboratory results: patent US20240116985A1, “STAPLED PEPTIDES AND METHODS THEREOF” (priority 2020, published 2024)

Target: T1, full-length beta-Catenin (Uniprot ID P35222) (Homo sapiens, UniProt P35222)
T1 construct: 10 nM full-length beta-Catenin (Uniprot ID P35222)
T1 sequence (P35222 1-781): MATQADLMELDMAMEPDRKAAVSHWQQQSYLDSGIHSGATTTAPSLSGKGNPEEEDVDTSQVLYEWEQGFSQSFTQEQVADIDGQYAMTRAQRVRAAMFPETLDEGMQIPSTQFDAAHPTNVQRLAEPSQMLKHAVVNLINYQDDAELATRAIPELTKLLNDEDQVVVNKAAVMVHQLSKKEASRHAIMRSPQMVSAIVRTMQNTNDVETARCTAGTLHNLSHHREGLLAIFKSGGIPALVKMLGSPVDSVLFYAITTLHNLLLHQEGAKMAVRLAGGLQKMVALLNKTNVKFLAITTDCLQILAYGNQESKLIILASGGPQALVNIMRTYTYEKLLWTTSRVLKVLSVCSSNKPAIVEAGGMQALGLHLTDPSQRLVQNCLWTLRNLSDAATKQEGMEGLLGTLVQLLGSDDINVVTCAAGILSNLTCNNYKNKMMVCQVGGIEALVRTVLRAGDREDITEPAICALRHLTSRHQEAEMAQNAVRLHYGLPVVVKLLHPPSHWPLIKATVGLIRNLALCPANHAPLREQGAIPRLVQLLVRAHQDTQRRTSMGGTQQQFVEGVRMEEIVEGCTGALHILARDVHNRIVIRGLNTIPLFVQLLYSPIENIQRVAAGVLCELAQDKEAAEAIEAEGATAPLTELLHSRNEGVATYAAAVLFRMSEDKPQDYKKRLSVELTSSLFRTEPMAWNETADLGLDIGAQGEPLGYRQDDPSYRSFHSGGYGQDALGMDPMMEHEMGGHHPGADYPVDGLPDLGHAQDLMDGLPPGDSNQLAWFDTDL
Assay: Fluorescence polarization IC50 (beta-catenin / 5FAM-TCF4 10-53 competition)
Type: binding
Conditions: fluorescence polarization; read-out: beta-Catenin FP IC50

IC50 [nM]	Compound
38	CC(=O)N1CCC[C@]12CC=CCCCC1(CCCC=CCCCOC(=O)N3CC[C@@](C(=O)N[C@@H](Cc4ccsc4)C(=O)N[C@@H](Cc4csc5ccccc45)C(=O)N[C@@H](CCC(N)=O)C(N)=O)(C3)NC(=O)[C@H](CC(C)C)NC(=O)[C@H](Cc3ccccc3)NC(=O)[C@H](C)NC(=O)[C@H](C)NC(=O)[C@H](CN(CC(=O)O)C(=O)C(F)(F)F)NC(=O)[C@H](CC(=O)O)NC1=O)NC(=O)[C@H](CC(C)(C)C)NC(=O)[C@H](CC(=O)O)NC2=O (stereo partly drawn) [I-1730, Ac-PL3-Asp-Npg-B5-Asp-[CF3CO]GA-Ala-Ala-Phe-Leu-PyrS2-3Thi-BztA-Gln-NH2]
667	CC(=O)N1CCC[C@]12CC=CCCCC1(CCCC=CCCCOC(=O)N3CC[C@@](C(=O)N[C@@H](Cc4ccccc4)C(=O)N[C@@H](Cc4csc5ccccc45)C(=O)N[C@@H](CCC(N)=O)C(N)=O)(C3)NC(=O)[C@H](CC(N)=O)NC(=O)[C@H](Cc3ccccc3)NC(=O)[C@H](C)NC(=O)[C@H](C)NC(=O)[C@H]([C@@H](C)O)NC(=O)[C@H](CC(N)=O)NC1=O)NC(=O)[C@H](CC(C)(C)C)NC(=O)[C@H](CC(=O)O)NC2=O (stereo partly drawn) [I-1735, Ac-PL3-Asp-Npg-B5-Asn-Thr-Ala-Ala-Phe-Asn-PyrS2-Phe-BztA-Gln-NH2]
458	CC(=O)N1CCC[C@]12CC=CCCCC1(CCCC=CCCCOC(=O)N3CC[C@@](C(=O)N[C@@H](Cc4cccs4)C(=O)N[C@@H](Cc4csc5ccccc45)C(=O)N[C@@H](CCC(N)=O)C(N)=O)(C3)NC(=O)[C@H](CC(N)=O)NC(=O)[C@H](Cc3ccccc3)NC(=O)[C@H](C)NC(=O)[C@H](C)NC(=O)[C@H]([C@@H](C)O)NC(=O)[C@H](CC(N)=O)NC1=O)NC(=O)[C@H](CC(C)(C)C)NC(=O)[C@H](CC(=O)O)NC2=O (stereo partly drawn) [I-1736, Ac-PL3-Asp-Npg-B5-Asn-Thr-Ala-Ala-Phe-Asn-PyrS2-2Thi-BztA-Gln-NH2]
518	CC(=O)N1CCC[C@]12CC=CCCCC1(CCCC=CCCCOC(=O)N3CC[C@@](C(=O)N[C@@H](Cc4ccccc4C)C(=O)N[C@@H](Cc4csc5ccccc45)C(=O)N[C@@H](CCC(N)=O)C(N)=O)(C3)NC(=O)[C@H](CC(N)=O)NC(=O)[C@H](Cc3ccccc3)NC(=O)[C@H](C)NC(=O)[C@H](C)NC(=O)[C@H]([C@@H](C)O)NC(=O)[C@H](CC(N)=O)NC1=O)NC(=O)[C@H](CC(C)(C)C)NC(=O)[C@H](CC(=O)O)NC2=O (stereo partly drawn) [I-1737, Ac-PL3-Asp-Npg-B5-Asn-Thr-Ala-Ala-Phe-Asn-PyrS2-2MeF-BztA-Gln-NH2]
1060	CC(=O)N1CCC[C@]12CC=CCCCC1(CCCC=CCCCOC(=O)N3CC[C@@](C(=O)N[C@@H](Cc4ccccc4C(F)(F)F)C(=O)N[C@@H](Cc4csc5ccccc45)C(=O)N[C@@H](CCC(N)=O)C(N)=O)(C3)NC(=O)[C@H](CC(N)=O)NC(=O)[C@H](Cc3ccccc3)NC(=O)[C@H](C)NC(=O)[C@H](C)NC(=O)[C@H]([C@@H](C)O)NC(=O)[C@H](CC(N)=O)NC1=O)NC(=O)[C@H](CC(C)(C)C)NC(=O)[C@H](CC(=O)O)NC2=O (stereo partly drawn) [I-1738, Ac-PL3-Asp-Npg-B5-Asn-Thr-Ala-Ala-Phe-Asn-PyrS2-2F3MeF-BztA-Gln-NH2]
3650	CC(=O)N1CCC[C@]12CC=CCCCC1(CCCC=CCCCOC(=O)N3CC[C@@](C(=O)N[C@@H](Cc4cccc(C)c4)C(=O)N[C@@H](Cc4csc5ccccc45)C(=O)N[C@@H](CCC(N)=O)C(N)=O)(C3)NC(=O)[C@H](CC(N)=O)NC(=O)[C@H](Cc3ccccc3)NC(=O)[C@H](C)NC(=O)[C@H](C)NC(=O)[C@H]([C@@H](C)O)NC(=O)[C@H](CC(N)=O)NC1=O)NC(=O)[C@H](CC(C)(C)C)NC(=O)[C@H](CC(=O)O)NC2=O (stereo partly drawn) [I-1739, Ac-PL3-Asp-Npg-B5-Asn-Thr-Ala-Ala-Phe-Asn-PyrS2-3MeF-BztA-Gln-NH2]
4390	CC(=O)N1CCC[C@]12CC=CCCCC1(CCCC=CCCCOC(=O)N3CC[C@@](C(=O)N[C@@H](Cc4ccsc4)C(=O)N[C@@H](Cc4csc5ccccc45)C(=O)N[C@@H](CCC(N)=O)C(N)=O)(C3)NC(=O)[C@H](Cc3c[nH]c4ccccc34)NC(=O)[C@H](Cc3ccccc3)NC(=O)[C@H](C)NC(=O)[C@H](C)NC(=O)[C@H]([C@@H](C)O)NC(=O)[C@H](CC(N)=O)NC1=O)NC(=O)[C@H](CC(C)(C)C)NC(=O)[C@H](CC(=O)O)NC2=O (stereo partly drawn) [I-1741, Ac-PL3-Asp-Npg-B5-Asn-Thr-Ala-Ala-Phe-Trp-PyrS2-3Thi-BztA-Gln-NH2]
867	CC(=O)N1CCC[C@]12CC=CCCCC1(CCCC=CCCCOC(=O)N3CC[C@@](C(=O)N[C@@H](Cc4ccsc4)C(=O)N[C@@H](Cc4csc5ccccc45)C(N)=O)(C3)NC(=O)[C@H](CC(N)=O)NC(=O)[C@H](Cc3ccccc3)NC(=O)[C@H](C)NC(=O)[C@H](C)NC(=O)[C@H]([C@@H](C)O)NC(=O)[C@H](CC(N)=O)NC1=O)NC(=O)[C@H](CC(C)(C)C)NC(=O)[C@H](CC(=O)O)NC2=O (stereo partly drawn) [I-1742, Ac-PL3-Asp-Npg-B5-Asn-Thr-Ala-Ala-Phe-Asn-PyrS2-3Thi-BztA-NH2]
469	CC(=O)N1CCC[C@]12CC=CCCCC1(CCCC=CCCCOC(=O)N3CC[C@@](C(=O)N[C@@H](Cc4ccsc4)C(=O)N[C@@H](Cc4csc5ccccc45)C(=O)N[C@@H](CCCNC(=N)N)C(N)=O)(C3)NC(=O)[C@H](CC(N)=O)NC(=O)[C@H](Cc3ccccc3)NC(=O)[C@H](C)NC(=O)[C@H](C)NC(=O)[C@H]([C@@H](C)O)NC(=O)[C@H](CC(N)=O)NC1=O)NC(=O)[C@H](CC(C)(C)C)NC(=O)[C@H](CC(=O)O)NC2=O (stereo partly drawn) [I-1743, Ac-PL3-Asp-Npg-B5-Asn-Thr-Ala-Ala-Phe-Asn-PyrS2-3Thi-BztA-Arg-NH2]
363	CC(=O)N1CCC[C@]12CC=CCCCC1(CCCC=CCCCOC(=O)N3CC[C@@](C(=O)N[C@@H](Cc4ccsc4)C(=O)N[C@@H](Cc4csc5ccccc45)C(=O)N[C@@H](Cc4ccccc4)C(N)=O)(C3)NC(=O)[C@H](CC(N)=O)NC(=O)[C@H](Cc3ccccc3)NC(=O)[C@H](C)NC(=O)[C@H](C)NC(=O)[C@H]([C@@H](C)O)NC(=O)[C@H](CC(N)=O)NC1=O)NC(=O)[C@H](CC(C)(C)C)NC(=O)[C@H](CC(=O)O)NC2=O (stereo partly drawn) [I-1744, Ac-PL3-Asp-Npg-B5-Asn-Thr-Ala-Ala-Phe-Asn-PyrS2-3Thi-BztA-Phe-NH2]
402	CC(=O)N1CCC[C@]12CC=CCCCC1(CCCC=CCCCOC(=O)N3CC[C@@](C(=O)N[C@@H](Cc4ccsc4)C(=O)N[C@@H](Cc4csc5ccccc45)C(=O)N[C@H](C(N)=O)[C@@H](C)O)(C3)NC(=O)[C@H](CC(N)=O)NC(=O)[C@H](Cc3ccccc3)NC(=O)[C@H](C)NC(=O)[C@H](C)NC(=O)[C@H]([C@@H](C)O)NC(=O)[C@H](CC(N)=O)NC1=O)NC(=O)[C@H](CC(C)(C)C)NC(=O)[C@H](CC(=O)O)NC2=O (stereo partly drawn) [I-1745, Ac-PL3-Asp-Npg-B5-Asn-Thr-Ala-Ala-Phe-Asn-PyrS2-3Thi-BztA-Thr-NH2]
235	CC(=O)N1CCC[C@]12CC=CCCCC1(CCCC=CCCCOC(=O)N3CC[C@@](C(=O)N[C@@H](Cc4ccsc4)C(=O)N[C@@H](Cc4csc5ccccc45)C(=O)N[C@@H](CC(N)=O)C(N)=O)(C3)NC(=O)[C@H](CC(N)=O)NC(=O)[C@H](Cc3ccccc3)NC(=O)[C@H](C)NC(=O)[C@H](C)NC(=O)[C@H]([C@@H](C)O)NC(=O)[C@H](CC(N)=O)NC1=O)NC(=O)[C@H](CC(C)(C)C)NC(=O)[C@H](CC(=O)O)NC2=O (stereo partly drawn) [I-1746, Ac-PL3-Asp-Npg-B5-Asn-Thr-Ala-Ala-Phe-Asn-PyrS2-3Thi-BztA-Asn-NH2]
